The nature of data set [1]: HEK-293T viability loss after treatment – luminescence, T-cell screen hits, cytotoxicity control for TCR NF-kB inhibitor project, dose response (AID 489026).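 Also: cells exposed to compound about 14 hours before the viability readout.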 The format is functional, cell-based.
Data set [2] relates to Streptococcus sp. 'group A'. Kind of data set: Streptococcus pyogenes SK(-)GAS viability under kanamycin – luminescence, BacTiterGlo, confirmation, counter-screen for streptokinase expression inhibitor project, dose response (AID 1900). The format is functional, organism-based.
Data set [3] relates to Streptococcus. In words: GAS UMAA2166 growth inhibition – luminescence, BacTiterGlo, counter-screen for streptokinase expression inhibitor project, dose response (AID 1915).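 Also: potency for reduction of bacterial viability or growth.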 The format is functional, organism-based. (In general: Counterscreens check selectivity or assay interference.)
The target in data set [4] is T1, Streptokinase A (Streptococcus pyogenes serotype M1, UniProt P10520).
T1 sequence (P10520 whole entry): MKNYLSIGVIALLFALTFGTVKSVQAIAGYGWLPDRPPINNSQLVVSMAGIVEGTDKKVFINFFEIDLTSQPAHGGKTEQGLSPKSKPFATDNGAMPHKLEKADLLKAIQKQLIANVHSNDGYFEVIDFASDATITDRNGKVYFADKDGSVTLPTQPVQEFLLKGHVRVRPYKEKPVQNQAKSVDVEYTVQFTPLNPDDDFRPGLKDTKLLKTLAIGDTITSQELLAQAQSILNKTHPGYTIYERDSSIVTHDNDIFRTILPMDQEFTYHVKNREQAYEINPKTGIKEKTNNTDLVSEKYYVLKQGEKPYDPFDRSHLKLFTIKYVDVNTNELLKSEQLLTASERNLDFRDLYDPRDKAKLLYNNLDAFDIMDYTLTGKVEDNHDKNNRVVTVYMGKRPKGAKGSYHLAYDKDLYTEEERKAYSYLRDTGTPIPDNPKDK
In words: viability-normalized secreted streptokinase activity reduction – plasminogen activation absorbance, OD405, dose response (AID 1914).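 Also: secreted streptokinase activity via plasminogen activation per viability signal from cell pellet.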 The format is functional, Streptococcus pyogenes M1 GAS.

The nature of data set [5]: microbe, parasite or virus in culture. The format is functional. The settings on record: Mycobacterium tuberculosis.
Data set [6] concerns the target Melanocortin receptor 4 (Homo sapiens, UniProt P32245). The format is functional, cell-based.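 Also: Cell-based assay with luminescence read-out, confirmatory dose-response testing for agonist activity of biased ligands at MC4R; human U2OS cells with tagged receptor and beta-arrestin; potency of agonists that increase receptor coupling to beta-arrestin.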
Data set [7] is described as follows: Luminescence Cell-Based Dose Retest to Confirm Inhibitors of Cancer Stem Cells. [Related pubchem assays (depositor defined):AID2717, AID2721]. The settings on record: Homo sapiens. The format is functional.
The target of data set [8] is T2, Bcl-2-related protein A1 (Mus musculus, UniProt Q07440).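 Also: confirmatory dose–response counterscreen on Bfl-1, used to check hits from a UBC13 polyubiquitin inhibitor campaign.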
T2 sequence (Q07440 whole entry): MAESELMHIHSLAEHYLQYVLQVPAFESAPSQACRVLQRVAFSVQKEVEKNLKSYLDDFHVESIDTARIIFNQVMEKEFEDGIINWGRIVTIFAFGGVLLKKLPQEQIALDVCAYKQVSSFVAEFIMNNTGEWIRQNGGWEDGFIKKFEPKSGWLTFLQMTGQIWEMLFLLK
The format is functional.

For data set [9], the target named is T3, Ubiquitin-conjugating enzyme E2 N (Homo sapiens, UniProt P61088).
T3 sequence (P61088 whole entry): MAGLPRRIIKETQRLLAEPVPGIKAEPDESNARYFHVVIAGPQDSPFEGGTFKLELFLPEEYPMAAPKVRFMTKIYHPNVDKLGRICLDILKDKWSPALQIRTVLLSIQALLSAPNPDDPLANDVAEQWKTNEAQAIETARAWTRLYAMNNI
The format is functional.

Data set [10] addresses T4, DNA repair protein RAD52 homolog (Homo sapiens, UniProt P43351).
T4 sequence (P43351 whole entry): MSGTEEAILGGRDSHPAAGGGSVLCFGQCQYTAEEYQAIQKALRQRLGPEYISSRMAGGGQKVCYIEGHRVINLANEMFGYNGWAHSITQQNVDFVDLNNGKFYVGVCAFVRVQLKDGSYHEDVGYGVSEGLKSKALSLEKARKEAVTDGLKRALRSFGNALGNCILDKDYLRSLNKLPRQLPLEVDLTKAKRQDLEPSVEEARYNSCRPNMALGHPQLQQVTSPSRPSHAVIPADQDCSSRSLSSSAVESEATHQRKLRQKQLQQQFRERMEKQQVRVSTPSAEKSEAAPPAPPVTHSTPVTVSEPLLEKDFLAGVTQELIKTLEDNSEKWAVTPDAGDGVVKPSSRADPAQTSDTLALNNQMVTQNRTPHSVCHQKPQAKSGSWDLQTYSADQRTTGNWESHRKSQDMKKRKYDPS
The format is functional, biochemical.

The target of data set [11] is T3, Ubiquitin-conjugating enzyme E2 N. The format is functional. This is another data set of the same source.
For data set [12], the target named is Cytochrome P450 3A4 (Homo sapiens, UniProt P08684).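 Also: CYP3A4 tested as one member of a cytochrome P450 panel screen.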
For data set [13], the target named is Dual specificity tyrosine-phosphorylation-regulated kinase 1A (Rattus norvegicus, UniProt Q63470). The format is biochemical, Homo sapiens.
Data set [14] concerns the target T5, Heat shock factor protein 1 (Mus musculus, UniProt P38532).
T5 sequence (P38532 whole entry): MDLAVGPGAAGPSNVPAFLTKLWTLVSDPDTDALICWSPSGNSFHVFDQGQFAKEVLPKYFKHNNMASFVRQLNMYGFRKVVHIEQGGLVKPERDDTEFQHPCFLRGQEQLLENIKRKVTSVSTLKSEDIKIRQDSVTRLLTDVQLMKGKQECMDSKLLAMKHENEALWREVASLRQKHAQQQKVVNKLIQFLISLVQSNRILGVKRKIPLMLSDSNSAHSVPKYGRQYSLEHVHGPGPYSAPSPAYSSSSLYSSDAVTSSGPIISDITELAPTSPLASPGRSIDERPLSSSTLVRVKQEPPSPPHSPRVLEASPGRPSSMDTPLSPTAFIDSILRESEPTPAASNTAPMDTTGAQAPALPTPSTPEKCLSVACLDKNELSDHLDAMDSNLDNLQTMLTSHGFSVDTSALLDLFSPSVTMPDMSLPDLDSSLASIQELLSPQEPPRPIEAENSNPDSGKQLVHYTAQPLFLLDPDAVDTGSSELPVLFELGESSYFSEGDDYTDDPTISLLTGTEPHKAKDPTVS
In words: decrease of HSF1-responsive luciferase luminescence – cell-based, NIH3T3, dose retest, confirmation (AID 2382).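 Also: NIH3T3 fibroblasts with HSF1-driven luciferase reporter stressed by proteasome inhibitor MG132; luminescence from HSF1-driven luciferase expression after 8 hours of MG132 stress.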 The format is functional.

Data set [15] relates to H4. In words: Luminescence Cell-Based Dose Response HTS to Identify Activators of 5'UTR Stem-Loop Driven Prion Protein mRNA Translation in H4 Neuroglioblastoma Cells. [Related pubchem assays: 1829 (Project Summary), 1814 (Primary HTS)]. The format is functional. The settings on record: Homo sapiens.
Data set [16] can be described thus: Luminescence Cell-Based Dose Response HTS to Identify Activators of Luciferase Translation or Activity in H4 […] Cells. [Related pubchem assays: 1829 (Project Summary), 1814 (Primary HTS)]. The format is functional.
A short description of data set [17]: Luminescence Cell-Based Dose Confirmation HTS to Identify Activators of 5'UTR Stem-Loop Driven Alpha-Synuclein mRNA Translation in H4 Neuroglioblastoma Cells. [Related pubchem assays: 1829 (Project Summary), 1814 (Primary HTS)]. The format is functional.
The subject of data set [18] is Escherichia coli. In words: microbe, parasite or virus in culture.
The test system of data set [19] is INS1. In words: INS-1E survival protection against cytokine death – cell-based, luminescence, retest, dose response (AID 449756).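 Also: cell death triggered by IL-1 beta plus TNF-alpha plus IFN-gamma mixture; protective hits raise ATP signal compared with cytokine alone wells.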 The settings on record: Rattus norvegicus. The format is functional.
The nature of data set [20]: Luminescence Cell-Based Dose Response HTS to Identify Inhibitors of 5'UTR Stem-Loop Driven Prion Protein mRNA Translation in H4 Neuroglioblastoma Cells. [Related pubchem assays: 1827 (Project Summary), 1813 (Primary HTS)]. The format is functional.
Data set [21] can be described thus: luciferase reporter signal suppression in cells – H4 neuroglioma cells, luminescence, dose response (AID 1990). The format is functional, cell-based.
Data set [22] is described as follows: alpha-synuclein stem-loop luciferase translation blockers – H4 neuroglioma cells, luminescence, confirmation (AID 1988). The format is functional, cell-based.
Data set [23] has as its target T6, Cytochrome P450 1A2 (Homo sapiens, UniProt P05177).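 Also: PubChem cytochrome P450 panel assay, CYP1A2 panel member.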
T6 sequence (P05177 whole entry): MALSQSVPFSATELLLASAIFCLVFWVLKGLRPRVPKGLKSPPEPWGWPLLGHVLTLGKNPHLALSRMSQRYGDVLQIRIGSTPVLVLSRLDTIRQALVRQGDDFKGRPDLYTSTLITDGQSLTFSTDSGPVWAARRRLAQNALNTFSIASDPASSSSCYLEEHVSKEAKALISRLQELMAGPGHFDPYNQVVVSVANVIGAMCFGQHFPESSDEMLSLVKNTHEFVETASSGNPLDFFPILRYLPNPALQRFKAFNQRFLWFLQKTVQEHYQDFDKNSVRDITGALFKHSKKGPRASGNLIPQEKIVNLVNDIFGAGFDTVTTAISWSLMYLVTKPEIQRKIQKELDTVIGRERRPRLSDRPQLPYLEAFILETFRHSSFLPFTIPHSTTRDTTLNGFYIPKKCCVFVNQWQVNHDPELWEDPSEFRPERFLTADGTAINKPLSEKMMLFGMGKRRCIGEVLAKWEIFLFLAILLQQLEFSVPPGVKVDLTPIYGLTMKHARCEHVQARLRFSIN

Data set [24] has as its target Cytochrome P450 2C19 (Homo sapiens, UniProt P33261). In words: Cytochrome panel assay with activity outcomes. Panel member name: p450-cyp2c19 Compounds with AC50 equal or less than 10 uM are considered active. The format is functional.
Data set [25] concerns the target Nonstructural protein 1 (Influenza A virus, UniProt Q194T2). The format is functional, Influenza A virus (A/California/07/2009(H1N1)).
In data set [26] the target is Cytochrome P450 2C9 (Homo sapiens, UniProt P11712).

Calls of active or inactive are those of the source.

Chain of Cytochrome P450 3A4 (P08684 whole entry): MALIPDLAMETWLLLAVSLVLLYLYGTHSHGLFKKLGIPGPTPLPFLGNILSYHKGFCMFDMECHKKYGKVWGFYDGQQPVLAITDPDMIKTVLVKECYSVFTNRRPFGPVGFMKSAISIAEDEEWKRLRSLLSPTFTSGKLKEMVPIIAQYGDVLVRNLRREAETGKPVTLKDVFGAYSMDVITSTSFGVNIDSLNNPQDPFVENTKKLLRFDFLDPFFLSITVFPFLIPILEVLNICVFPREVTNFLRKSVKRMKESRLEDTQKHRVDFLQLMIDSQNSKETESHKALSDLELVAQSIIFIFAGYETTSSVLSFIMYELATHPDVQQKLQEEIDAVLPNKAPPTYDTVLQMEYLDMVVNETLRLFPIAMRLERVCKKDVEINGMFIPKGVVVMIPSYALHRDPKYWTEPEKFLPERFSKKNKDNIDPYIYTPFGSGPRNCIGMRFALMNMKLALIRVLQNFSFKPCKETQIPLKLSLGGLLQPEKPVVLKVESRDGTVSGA
Chain of Cytochrome P450 2C9 (P11712 whole entry): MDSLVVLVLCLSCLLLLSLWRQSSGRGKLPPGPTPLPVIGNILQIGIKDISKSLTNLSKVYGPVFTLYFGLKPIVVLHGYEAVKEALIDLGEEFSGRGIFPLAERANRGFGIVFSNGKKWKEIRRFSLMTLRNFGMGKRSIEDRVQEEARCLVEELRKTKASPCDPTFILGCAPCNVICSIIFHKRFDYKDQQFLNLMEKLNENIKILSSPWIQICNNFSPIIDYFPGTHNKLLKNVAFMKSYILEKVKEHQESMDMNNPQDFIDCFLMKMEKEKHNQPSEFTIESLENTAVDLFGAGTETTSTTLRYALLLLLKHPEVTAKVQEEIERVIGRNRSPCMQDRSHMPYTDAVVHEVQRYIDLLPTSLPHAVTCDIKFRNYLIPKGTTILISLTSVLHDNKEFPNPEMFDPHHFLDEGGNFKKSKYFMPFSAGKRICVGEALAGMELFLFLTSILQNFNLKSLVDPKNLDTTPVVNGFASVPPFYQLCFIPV
Chain of Nonstructural protein 1 (Q194T2 whole entry): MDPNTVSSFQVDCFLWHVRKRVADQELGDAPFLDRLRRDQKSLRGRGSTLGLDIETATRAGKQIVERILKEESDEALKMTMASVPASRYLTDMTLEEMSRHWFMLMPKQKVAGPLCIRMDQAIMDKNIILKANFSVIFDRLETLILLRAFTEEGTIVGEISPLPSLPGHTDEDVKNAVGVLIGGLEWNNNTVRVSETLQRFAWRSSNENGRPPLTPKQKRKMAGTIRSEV
Chain of Melanocortin receptor 4 (P32245 whole entry): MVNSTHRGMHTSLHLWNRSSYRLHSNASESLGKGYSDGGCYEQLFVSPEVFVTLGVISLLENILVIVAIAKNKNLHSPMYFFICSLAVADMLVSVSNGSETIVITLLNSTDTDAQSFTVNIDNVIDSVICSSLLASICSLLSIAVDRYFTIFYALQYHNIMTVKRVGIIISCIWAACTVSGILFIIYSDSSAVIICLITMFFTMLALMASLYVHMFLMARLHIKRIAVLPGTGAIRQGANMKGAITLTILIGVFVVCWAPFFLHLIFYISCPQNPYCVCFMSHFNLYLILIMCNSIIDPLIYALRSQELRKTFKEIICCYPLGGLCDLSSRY
Chain of Cytochrome P450 2C19 (P33261 whole entry): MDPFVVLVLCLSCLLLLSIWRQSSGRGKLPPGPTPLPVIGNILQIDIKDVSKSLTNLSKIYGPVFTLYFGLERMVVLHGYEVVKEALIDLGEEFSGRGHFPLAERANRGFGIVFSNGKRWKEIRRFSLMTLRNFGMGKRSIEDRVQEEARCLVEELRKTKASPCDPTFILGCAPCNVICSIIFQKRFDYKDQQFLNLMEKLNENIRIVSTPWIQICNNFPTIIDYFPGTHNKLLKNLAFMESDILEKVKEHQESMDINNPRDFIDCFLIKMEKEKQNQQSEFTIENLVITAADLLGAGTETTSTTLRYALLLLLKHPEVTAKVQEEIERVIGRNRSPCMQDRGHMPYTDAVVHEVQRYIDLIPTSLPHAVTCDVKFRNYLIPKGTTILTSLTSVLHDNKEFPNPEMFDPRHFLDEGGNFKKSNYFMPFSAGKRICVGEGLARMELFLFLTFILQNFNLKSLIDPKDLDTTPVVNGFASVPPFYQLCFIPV

Turning to `COc1ccc(S(=O)(=O)N2N=C(C)Oc3ccccc3C2=O)cc1`, the IC50 in data set [1] was > 80 µM (inactive).
Regarding `Cc1c(C(=O)N/N=C/c2ccc(Cl)cc2)[nH]c2ccc(Cl)cc12`, the results for the EC50 in [2], in data set [3] and in data set [4] were 2.61 µM (active), 10.9 µM (active) and > 150 µM (not active), respectively. The IC50 in data set [1] was > 80 µM (inactive).
Turning to `COc1cc2nc(Nc3ccc(C)c(Cl)c3)nc(N)c2cc1OC`, in data set [5], the CC50 was 3.77 µM (active). Moreover, the EC50 in data set [6] was > 89.2 µM (inactive). The results for the AC50 in data set [7] and in data set [10] were 6.52 µM (active) and 9.23 µM (active), respectively. Besides, the values for the IC50 in [8], in [9] and in data set [11] were 18.7 µM (active), 8.57 µM (active) and 5.71 µM (active), respectively.
Turning to `COC(=O)Cc1cc(O)n2nc(C)c(-c3ccccc3)c2n1`, in data set [12], the AC50 result is “inconclusive”.
`Oc1ccc(/C=N/n2c(-c3ccccc3)n[nH]c2=S)cc1`: in data set [13], the AC50 is 4.2 µM (active).
In the case of `Cc1ccc(N2CN=c3s/c(=C\c4ccccn4)c(=O)n3C2)cc1`, the EC50 in [14] was > 195 µM (not active); in data set [15], > 120 µM (not active); in [16], 29.5 µM (active); in data set [17], > 120 µM (not active). In addition, the AC50 in data set [13] is 3.58 µM (active).
As to `Cc1cccc(/C=N/NC(=O)c2cc(C3CC3)nc3ccccc23)n1`, the AC50 in data set [18] was 37.9 µM (active).
For the compound `CCN1CCN(Cc2ccc(NC(=O)c3cc(NC(=O)C(=O)c4c[nH]c5ccccc45)cc(OC)c3)cc2C(F)(F)F)CC1`, the AC50 in [19] is 7.13 µM (active). Also, the IC50 was > 20 µM (inactive) in data set [8], 16.8 µM (active) in data set [9] and 11.9 µM (active) in [11]. Also, the EC50 in data set [20] is 6.9 µM (active); in [21], 8.53 µM (active); in data set [22], 9.06 µM (active).
`O=C(C[n+]1ccc(CCSc2ccc(F)cc2)cc1)c1ccccc1`: the IC50 was 5.2 µM (active) in [8], 1.46 µM (active) in [9] and 1.02 µM (active) in [11].
As for `COC(=O)C(C)Oc1cc(C)cc2oc(=O)c3c(c12)CCCC3` (stereo not drawn), the AC50 in data set [18] was 28.2 µM (active).
Regarding `CC(=O)O[C@H]1CC[C@@]2(C)[C@@H](CC[C@H]3[C@H]2CC(=O)[C@]2(C)[C@@H]3C[C@@H](N3CC3)[C@H]2C(C)=O)C1`, the AC50 is 0.0398 µM (inconclusive) in data set [23], “inconclusive” in data set [24] and “inconclusive” in data set [12].
With `O=C(c1ccc(-c2cc(O)c3ncccc3c2)cc1)N1CCNCC1`, the IC50 in data set [8] is 7 µM (active); in data set [25], 9.74 µM (active); in [9], 3.61 µM (active); in data set [11], 3.14 µM (active). Moreover, the AC50 in [10] was 1.66 µM (active).
On to `O=C(c1cn(Cc2ccccc2)nc1-c1ccccc1)N1CCN(c2ccccn2)CC1`, for which the IC50 in data set [1] was > 80 µM (inactive).
As for `C=CCN1CCc2c(cc(O)c(O)c2Cl)[C@H](c2ccccc2)C1`, the AC50 in data set [23] was 20 µM (inconclusive); in data set [26], 31.6 µM (inconclusive); in data set [12] it was “inconclusive”.
Consider `CC(=O)Oc1ccc(C(=O)Cc2ccccn2)c(O)c1`, for which the AC50 in data set [18] is 27.9 µM (active).
`O=C(c1ccccc1F)c1cn(Cc2ccccc2)c2ccccc12`: the AC50 in data set [26] was 35.5 µM (inconclusive); in data set [12], “inconclusive”.
`O=C(/C=C/c1ccccc1)Nc1cccnc1Oc1ccccc1F`: the AC50 in [13] was 11.1 µM (active).
Same read-out and setting: to `Oc1ccc(/C=N/n2c(S)nnc2-c2ccccc2)cc1Br` belongs 11.8 µM (active).

As a reminder, the IC50 is the concentration needed to halve the response being measured. What is called EC50 is the midpoint of the concentration-response curve. By AC50 is commonly meant the concentration at which the activity in the assay is half-maximal.

For the origin of these results see ChEMBL document CHEMBL1201862, “PubChem BioAssay data set” (2004).
